This passage reports IC50 results from US20240228463A1, “SODIUM CHANNEL INHIBITORS AND METHODS OF DESIGNING SAME” (Genentech, Inc., priority 2021, published 2024).

The assay has as its target T1, hNaV1.7 (Homo sapiens, UniProt Q15858).
T1 construct: expressed in transfected cells
Put plainly: Patch voltage clamp electrophysiology (EP), Syncropatch 384PE, Nav1.7 in CHO cells.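 Also: Nav1.7 stably expressed from cDNA in CHO cells, holding potential of −50 mV kept for the entire experiment.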 It is filed as cell-based. The settings on record: holding potential −50 mV, inhibition based on 7.5 min compound incubation, read-out: hNaV1.7 EP_SP. (The patch-clamp technique gives a direct electrical read-out from membranes.)

T1 sequence (Q15858 1-1977 isoform Q15858-3): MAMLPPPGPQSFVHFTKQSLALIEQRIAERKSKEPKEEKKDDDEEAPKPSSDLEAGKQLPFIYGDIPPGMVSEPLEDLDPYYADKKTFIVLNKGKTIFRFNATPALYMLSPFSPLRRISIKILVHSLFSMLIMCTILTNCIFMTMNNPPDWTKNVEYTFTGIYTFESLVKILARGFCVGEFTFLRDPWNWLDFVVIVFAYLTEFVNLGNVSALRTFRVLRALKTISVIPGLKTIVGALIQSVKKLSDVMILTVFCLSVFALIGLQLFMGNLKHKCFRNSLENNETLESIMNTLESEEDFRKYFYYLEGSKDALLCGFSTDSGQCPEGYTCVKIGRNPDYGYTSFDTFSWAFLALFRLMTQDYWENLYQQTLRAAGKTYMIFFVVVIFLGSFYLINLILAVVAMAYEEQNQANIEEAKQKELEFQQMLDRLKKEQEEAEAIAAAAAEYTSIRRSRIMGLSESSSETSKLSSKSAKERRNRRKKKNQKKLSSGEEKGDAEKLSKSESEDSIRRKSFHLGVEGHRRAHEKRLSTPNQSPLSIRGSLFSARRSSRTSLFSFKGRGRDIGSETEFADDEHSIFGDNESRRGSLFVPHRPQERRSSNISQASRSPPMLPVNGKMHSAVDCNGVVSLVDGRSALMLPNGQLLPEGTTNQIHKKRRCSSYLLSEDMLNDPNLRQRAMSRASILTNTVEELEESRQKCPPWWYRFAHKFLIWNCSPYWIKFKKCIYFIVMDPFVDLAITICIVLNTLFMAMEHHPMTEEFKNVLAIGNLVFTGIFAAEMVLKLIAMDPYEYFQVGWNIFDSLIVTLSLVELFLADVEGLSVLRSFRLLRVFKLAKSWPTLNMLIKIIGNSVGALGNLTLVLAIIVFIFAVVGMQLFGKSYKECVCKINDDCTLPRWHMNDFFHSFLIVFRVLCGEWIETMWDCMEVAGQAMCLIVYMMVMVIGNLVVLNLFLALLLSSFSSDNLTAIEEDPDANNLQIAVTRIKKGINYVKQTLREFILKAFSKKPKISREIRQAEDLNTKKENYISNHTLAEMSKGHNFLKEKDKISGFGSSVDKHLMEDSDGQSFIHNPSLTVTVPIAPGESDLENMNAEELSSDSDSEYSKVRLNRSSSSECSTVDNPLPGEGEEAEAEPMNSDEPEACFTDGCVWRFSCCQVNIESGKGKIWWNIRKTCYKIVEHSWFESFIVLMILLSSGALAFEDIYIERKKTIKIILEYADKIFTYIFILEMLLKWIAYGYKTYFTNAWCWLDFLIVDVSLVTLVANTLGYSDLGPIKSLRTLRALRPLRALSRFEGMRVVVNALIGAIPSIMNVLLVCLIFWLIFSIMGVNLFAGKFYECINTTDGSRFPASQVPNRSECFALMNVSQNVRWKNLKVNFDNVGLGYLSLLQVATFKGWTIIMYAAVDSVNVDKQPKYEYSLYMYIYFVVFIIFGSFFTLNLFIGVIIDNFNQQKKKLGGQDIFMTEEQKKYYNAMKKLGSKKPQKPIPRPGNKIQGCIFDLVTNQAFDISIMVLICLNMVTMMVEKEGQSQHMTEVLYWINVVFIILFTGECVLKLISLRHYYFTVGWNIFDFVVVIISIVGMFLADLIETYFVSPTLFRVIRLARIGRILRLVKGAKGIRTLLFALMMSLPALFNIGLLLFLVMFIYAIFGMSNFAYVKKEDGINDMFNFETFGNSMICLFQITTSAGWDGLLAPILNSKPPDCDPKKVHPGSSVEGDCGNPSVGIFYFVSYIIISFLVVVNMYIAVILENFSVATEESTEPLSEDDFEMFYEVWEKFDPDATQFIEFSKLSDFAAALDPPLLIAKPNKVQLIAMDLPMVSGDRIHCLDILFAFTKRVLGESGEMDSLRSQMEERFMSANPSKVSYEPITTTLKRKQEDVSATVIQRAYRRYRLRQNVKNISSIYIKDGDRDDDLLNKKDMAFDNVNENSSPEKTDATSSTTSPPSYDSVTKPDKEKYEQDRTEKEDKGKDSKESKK

Turning to `CN(C)[C@H]1CCCC[C@@H]1Nc1ccc(S(=O)(=O)Nc2nccs2)c(F)c1` [Example 332, 4-(((1S,2S)-2-(dimethylamino)cyclohexyl)amino)-2-fluoro-N-(thiazol-2-yl)benzenesulfonamide], the IC50 was determined as 0.22 µM. As to `O=C(NS(=O)(=O)c1cc(Cl)ccc1F)c1cc(Cl)c(OCC2CCCC2)cc1F` [Example 80, 5-chloro-N-((5-chloro-2-fluorophenyl)sulfonyl)-4-(cyclopentylmethoxy)-2-fluorobenzamide], the IC50 was found to be 0.7 µM. As to `O=C(NS(=O)(=O)c1ccccc1F)c1cc(Cl)c(OCC2CCCC2)cc1F` [Example 241, 5-chloro-4-(cyclopentylmethoxy)-2-fluoro-N-((2-fluorophenyl)sulfonyl)benzamide], the IC50 is 0.065 µM.

With `O=S(=O)(Nc1noc2cc(OCC3CCCC3)c(C3CC3)cc12)N1CCC(O[C@@H]2CCNC2)CC1` (single isomer, unassigned) [Example 91, 2,2,2-trifluoroacetate], the IC50 was 0.79 µM. With `O=C(NS(=O)(=O)c1ccc(NCc2ccccc2)cc1)c1cc(Cl)c(OCC2CCCC2)cc1F` [Example 84, N-((4-(benzylamino)phenyl)sulfonyl)-5-chloro-4-(cyclopentylmethoxy)-2-fluorobenzamide], the IC50 amounted to 0.69 µM.

As to `O=C(NS(=O)(=O)c1ccc2ccccc2c1F)c1cc(Cl)c(OCC2CCCC2)cc1F` [Example 278, 5-chloro-4-(cyclopentylmethoxy)-2-fluoro-N-((1-fluoronaphthalen-2-yl)sulfonyl)benzamide], the IC50 was determined as 0.96 µM. For `O=C(NS(=O)(=O)N1CCC(O[C@@H]2CCNC2)CC1)c1cc(Cl)c(OCC2CCCC2)cc1F` (single isomer, unassigned) [Example 36, 2,2,2-trifluoroacetate] the value was 0.2 µM. In the case of `O=C(NS(=O)(=O)c1c(F)cccc1F)c1cc(Cl)c(OCC2CCCC2)cc1F` [Example 79, 5-chloro-4-(cyclopentylmethoxy)-N-((2,6-difluorophenyl)sulfonyl)-2-fluorobenzamide] it was 0.1 µM; in that of `CC[C@@H](C)S(=O)(=O)NC(=O)c1cc(Cl)c(OCC2CCCC2)cc1F` (single isomer, unassigned) [Example 255], 0.026 µM; in that of `CN(C)[C@H]1CCCC[C@@H]1OC1CCN(S(=O)(=O)NC(=O)c2cc(C3CC3)c(OCC3CCCC3)cc2F)CC1` [Example 331, 4-(cyclopentylmethoxy)-5-cyclopropyl-N-((4-(((1S,2S)-2-(dimethylamino)cyclohexyl)oxy)piperidin-1-yl)sulfonyl)-2-fluorobenzamide], 0.14 µM.

For `CN(C)[C@H]1CCCC[C@@H]1Oc1ccc(S(=O)(=O)NC(=O)c2cc(Cl)c(OCC3CCCC3)cc2F)c(F)c1` [Example 66, 5-chloro-4-(cyclopentylmethoxy)-N-((4-(((1S,2S)-2-(dimethylamino)-cyclohexyl)oxy)-2-fluorophenyl)sulfonyl)-2-fluorobenzamide], the IC50 worked out at 0.22 µM. Consider `O=C(NS(=O)(=O)c1ccc2c(c1)NCC2)c1cc(Cl)c(OCC2CCCC2)cc1F` [Example 282, 5-chloro-4-(cyclopentylmethoxy)-2-fluoro-N-(indolin-6-ylsulfonyl)benzamide], for which the IC50 came to 0.76 µM. For `O=C(NS(=O)(=O)c1ccc(OCc2ccccc2Cl)cc1)c1cc(Cl)c(OCC2CCCC2)cc1F` [Example 264, 5-chloro-N-((4-((2-chlorobenzyl)oxy)phenyl)sulfonyl)-4-(cyclopentylmethoxy)-2-fluorobenzamide] the value was 0.084 µM; for `COc1ccccc1-n1cc(S(=O)(=O)NC(=O)c2cc(Cl)c(OCC3CCCC3)cc2F)cn1` [Example 291, 5-chloro-4-(cyclopentylmethoxy)-2-fluoro-N-((1-(2-methoxyphenyl)-1H-pyrazol-4-yl)sulfonyl)benzamide], 0.35 µM.

For `COc1ccc(S(=O)(=O)NC(=O)c2cc(Cl)c(OCC3CCCC3)cc2F)cc1` [Example 81, 5-chloro-4-(cyclopentylmethoxy)-2-fluoro-N-((4-methoxyphenyl)sulfonyl)-benzamide], the IC50 is 0.14 µM. In the case of `COc1ccccc1COc1ccc(S(=O)(=O)NC(=O)c2cc(Cl)c(OCC3CCCC3)cc2F)cc1` [Example 318, 5-chloro-4-(cyclopentylmethoxy)-2-fluoro-N-((4-((2-methoxybenzyl)oxy)phenyl)sulfonyl)benzamide], the IC50 came out at 0.19 µM. For `O=C(NS(=O)(=O)N1CCC(OC2CN(C3COC3)C2)CC1)c1cc(Cl)c(OCC2CCCC2)cc1F` [Example 11, 5-chloro-4-(cyclopentylmethoxy)-2-fluoro-N-((4-((1-(oxetan-3-yl)azetidin-3-yl)oxy)piperidin-1-yl)sulfonyl)benzamide] the value was 0.13 µM.

`CN(C)[C@H]1CCCC[C@@H]1Nc1cc(F)c(S(=O)(=O)Nc2ccc(OCCCc3ccc(C(F)(F)F)cc3)cn2)cc1Cl` [Example 103, 5-chloro-4-(((1S,2S)-2-(dimethylamino)cyclohexyl)amino)-2-fluoro-N-(5-(3-(4-(trifluoromethyl)phenyl)propoxy)pyridin-2-yl) benzenesulfonamide]: the IC50 amounted to 0.22 µM.

Consider `O=C(NS(=O)(=O)c1cnn(-c2cccc(C(F)(F)F)c2)c1)c1cc(Cl)c(OCC2CCCC2)cc1F` [Example 259, 5-chloro-4-(cyclopentylmethoxy)-2-fluoro-N-((1-(3-(trifluoromethyl)phenyl)-1H-pyrazol-4-yl)sulfonyl)benzamide], for which the IC50 is 0.79 µM. For `O=S(=O)(Nc1noc2cc(OCC3CCCC3)c(C3CC3)cc12)N1CCC(O[C@H]2CCNC2)CC1` (single isomer, unassigned) [Example 92, 2,2,2-trifluoroacetate] the value was 0.069 µM. For `CN1CC[C@H](OC2CCN(S(=O)(=O)NC(=O)c3cc(Cl)c(OCC4CCCC4)cc3F)CC2)C1` (single isomer, unassigned) [Example 326], the IC50 came to 0.23 µM. Regarding `O=C(NS(=O)(=O)CCCOc1cccc(C(F)(F)F)c1)c1cc(Cl)c(OCC2CCCC2)cc1F` [Example 253, 5-chloro-4-(cyclopentylmethoxy)-2-fluoro-N-((3-(3-(trifluoromethyl)phenoxy)propyl)sulfonyl)benzamide], the IC50 worked out at 0.42 µM. As to `CN(C)[C@H]1CCCC[C@@H]1Oc1ccc(S(=O)(=O)Nc2ccc(SCc3ccccc3Cl)cn2)c(F)c1` [Example 257, N-(5-((2-chlorobenzyl)thio)pyridin-2-yl)-4-(((1S,2S)-2-(dimethylamino)cyclohexyl)oxy)-2-fluorobenzenesulfonamide], the IC50 came to 0.73 µM. As for `O=C(NS(=O)(=O)N1CCC(OC2CN(C3CC3)C2)CC1)c1cc(Cl)c(OCC2CCCC2)cc1F` [Example 12, 5-chloro-4-(cyclopentylmethoxy)-N-((4-((1-cyclopropylazetidin-3-yl)oxy)piperidin-1-yl)sulfonyl)-2-fluorobenzamide], the IC50 was determined as 0.029 µM. Regarding `NCc1cccc(COc2ccc(S(=O)(=O)NC(=O)c3cc(Cl)c(OCC4CCCC4)cc3F)cc2)c1` [Example 300, N-((4-((3-(aminomethyl)benzyl)oxy)phenyl)sulfonyl)-5-chloro-4-(cyclopentylmethoxy)-2-fluorobenzamide], the IC50 amounted to 0.0032 µM. For `Cn1nccc1COc1ccc(S(=O)(=O)NC(=O)c2cc(Cl)c(OCC3CCCC3)cc2F)cc1` [Example 315, 5-chloro-4-(cyclopentylmethoxy)-2-fluoro-N-((4-((1-methyl-1H-pyrazol-5-yl)methoxy)phenyl)sulfonyl)benzamide] the value was 0.047 µM; for `C[C@H]1CCc2ccccc2N1S(=O)(=O)NC(=O)c1cc(Cl)c(OCC2CCCC2)cc1F` [(S) enantiomer of Example 18], 0.5 µM. For `N[C@H]1CCCCN(S(=O)(=O)NC(=O)c2cc(Cl)c(OCC3CCCC3)cc2F)C1` (single isomer, unassigned) [Example 219, 2,2,2-trifluoroacetate] the value was 0.65 µM; for `O=C(NS(=O)(=O)c1ccc2c(c1)CCC2)c1cc(Cl)c(OCC2CCCC2)cc1F` [Example 262, 5-chloro-4-(cyclopentylmethoxy)-N-((2,3-dihydro-1H-inden-5-yl)sulfonyl)-2-fluorobenzamide], 0.27 µM. For `CN1CC(OC2CCN(S(=O)(=O)NC(=O)c3cc(C4CC4)c(OCC(F)(F)F)cc3F)CC2)C1` [Example 238, 5-cyclopropyl-2-fluoro-N-((4-((1-methylazetidin-3-yl)oxy)piperidin-1-yl)sulfonyl)-4-(2,2,2-trifluoroethoxy)benzamide] the value was 0.084 µM; for `O=C(NS(=O)(=O)N1CC(OC2CCNCC2)C1)c1cc(Cl)c(OCC2CCCC2)cc1F` [Example 50, 5-chloro-4-(cyclopentylmethoxy)-2-fluoro-N-((3-(piperidin-4-yloxy)azetidin-1-yl)sulfonyl)benzamide], 0.26 µM.

For the compound `O=C(NS(=O)(=O)c1ccc2ccccc2c1)c1cc(Cl)c(OCC2CCCC2)cc1F` [Example 290, 5-chloro-4-(cyclopentylmethoxy)-2-fluoro-N-(naphthalen-2-ylsulfonyl)benzamide], the IC50 amounted to 0.76 µM. Consider `CN(C)C1CN(S(=O)(=O)NC(=O)c2cc(Cl)c(OCC3CCCC3)cc2F)C1` [Example 234, 5-chloro-4-(cyclopentylmethoxy)-N-((3-(dimethylamino)azetidin-1-yl)sulfonyl)-2-fluorobenzamide], for which the IC50 is 0.34 µM. For `CN1CC(OC2CCN(S(=O)(=O)NC(=O)c3cc(C4CCC4)c(OCC4CCCC4)cc3F)CC2)C1` [Example 7, 5-cyclobutyl-4-(cyclopentylmethoxy)-2-fluoro-N-((4-((1-methylazetidin-3-yl)oxy)piperidin-1-yl)sulfonyl)benzamide 2,2,2-trifluoroacetate] the value was 0.008 µM; for `O=C(NS(=O)(=O)C1=Cc2ccccc2CC1)c1cc(Cl)c(OCC2CCCC2)cc1F` [Example 275, 5-chloro-4-(cyclopentylmethoxy)-N-((3,4-dihydronaphthalen-2-yl)sulfonyl)-2-fluorobenzamide], 0.51 µM; for `O=C(NS(=O)(=O)c1ccc2c(c1)OCCO2)c1cc(Cl)c(OCC2CCCC2)cc1F` [Example 281, 5-chloro-4-(cyclopentylmethoxy)-N-((2,3-dihydrobenzo[b][1,4]dioxin-6-yl)sulfonyl)-2-fluorobenzamide], 0.32 µM.
